Experimental findings from patent US9615577B2, “Herbicidally active cyclic dione compounds, or derivatives therefor, substituted by a phenyl which has an alkynyl-containing substituent” (Syngenta Limited, priority 2012, dated 2017) are described below.

Holding throughout (type): in vivo
In one test the test system is Avena fatua (AVEFA). Briefly: Test 1B glasshouse assay for herbicidal activity, pre-emergence. The conditions noted are these: 480 h, 250 g/ha, 20 DAA, read-out: percentage phytotoxicity AVEFA. The method, then:
(§1) Seeds of a variety of monocotyledonous and dicotyledonous test plants are sown in standard soil in pots. The plants are cultivated for one day (for pre-emergence) or for about 12 days (range=10-13 days) (for post-emergence) under controlled conditions in a glasshouse (warm climate species at 24/18° C., cool climate species at 20/16° C., both at day/night; 16 hours light; 65% humidity).
(§2) An “instant formulation”, known as the “IF50”, containing 50 g/liter (i.e. 5% w/v) of the “technical” (i.e. unformulated) active ingredient is prepared by dissolving the active ingredient in a mixture of organic solvents and emulsifier, details of which are provided in the Table below. This IF50 is then mixed with a small, variable amount of acetone to aid dissolution, before addition of a 0.2% v/v aqueous solution of the adjuvant X-77 (which is a mixture of alkyl aryl polyoxyethylene glycols and free fatty acids in isopropanol, CAS Registry number 11097-66-8), as the aqueous diluent, to form an aqueous spray solution which contains a predetermined concentration of the active ingredient (which varies depending on the application rate of the active ingredient to the plants) and 0.2% v/v of the adjuvant X-77. This aqueous spray solution is then sprayed onto the plants, after one day's cultivation (for pre-emergence) or after about 12 days' cultivation (for post-emergence).
(§3) The test plants are then grown on, in a glasshouse (greenhouse) under controlled conditions (at either 24/18° C. or 20/16° C. (day/night) as mentioned above; 16 hours light; 65% humidity) and are watered twice daily. Either 15 days after application of the herbicide (15 DAA) (for post-emergence), or 20 days after application of the herbicide (20 DAA) (for pre-emergence), the test plants are evaluated visually, and an assessed percentage phytotoxicity score is given for each herbicidal application on each plant species (where 100%=total damage to plant; 0%=no damage to plant).
(§4) Cool climate (“cool season”) grassy monocotyledonous weeds: Alopecurus myosuroides (ALOMY), Avena fatua (AVEFA), Lolium perenne (LOLPE).

The subject of test [1] is Alopecurus myosuroides (ALOMY). The description is as above. Particulars: 480 h, 250 g/ha, 20 DAA, read-out: percentage phytotoxicity ALOMY. How it is done:
as §1, §2, §3, §4

The subject of the next test is Lolium perenne (LOLPE). Described as above. The conditions noted are these: 480 h, 250 g/ha, 20 DAA, read-out: percentage phytotoxicity LOLPE. The method, then:
as §1, §2, §3, §4

The subject of test [2] is SORVU (Sorghum bicolor (L.) Moench ssp. Bicolor, or Sorghum vulgare Pers.). The description is as above. Particulars: 480 h, 250 g/ha, 20 DAA, read-out: percentage phytotoxicity SORVU. The method, then: as §1, §2, §3
(§5) Warm climate (“warm season”) grassy monocotyledonous weeds: Setaria faberi (SETFA), SORVU (Sorghum bicolor (L.) Moench ssp. Bicolor, or Sorghum vulgare Pers.), Digitaria sanguinalis (DIGSA), Echinochloa crus-galli (ECHCG), and Brachiaria plantaginea (BRAPL).

In test [3] the test system is Echinochloa crus-galli (ECHCG). Described as above. The conditions noted are these: 480 h, 250 g/ha, 20 DAA, read-out: percentage phytotoxicity ECHCG. How it is done:
as §1, §2, §3, §5

Test [4] has as its system Digitaria sanguinalis (DIGSA). Described as above. The conditions noted are these: 480 h, 250 g/ha, 20 DAA, read-out: percentage phytotoxicity DIGSA. How it is done: as §1, §2, §3, §5
Test [5] has as its system Setaria faberi (SETFA). The test is described as above. Particulars: 480 h, 250 g/ha, 20 DAA, read-out: percentage phytotoxicity SETFA. The method, then: as §1, §2, §3, §5
The subject of test [6] is Glycine max (GLXMA, soybean). Described as above. Particulars: 480 h, 250 g/ha, 20 DAA, read-out: percentage phytotoxicity GLXMA. How it is done: as §1, §2, §3
Warm climate crop plants: Glycine max (GLXMA, soybean).

Test [7] relates to Echinochloa crus-galli (ECHCG). The test can be described thus: Test 1B glasshouse assay for herbicidal activity, post-emergence. The conditions noted are these: Echinochloa crus-galli. In outline: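 Plants grown about 12 days (10–13) in glasshouse (24/18 °C day/night, 16 h light, 65% humidity) then sprayed with IF50 formulation diluted in 0.2% v/v X-77 adjuvant at set application rates. Percent phytotoxicity scored visually 15 days after application (0 = no damage, 100 = total damage).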

For test [8], the system named is Alopecurus myosuroides (ALOMY). The test can be described thus: Test 1A glasshouse assay for herbicidal activity, post-emergence. The conditions noted are these: 312 h, evaluated after 13 days, read-out: percentage phytotoxicity ALOMY. In outline: (§6)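 Test plants grew from seed in standard soil under controlled glasshouse conditions (24/16 °C, 14 h light, 65% humidity) and received an aqueous acetone (50:50) spray with 0.5% Tween 20, either one day after sowing or after eight days. Damage was rated visually as percent phytotoxicity 13 days later.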

For test [9], the system named is Setaria faberi (SETFA). The description is as above. The conditions noted are these: 312 h, evaluated after 13 days, read-out: percentage phytotoxicity SETFA. The method, boiled down:
as §6

For test [10], the system named is Brassica napus (BRSNN, rape). The test can be described thus: Test 1B glasshouse assay for herbicidal activity, pre-emergence. The conditions noted are these: 480 h, 250 g/ha, 20 DAA, read-out: percentage phytotoxicity BRSNN. The method, then:
as §1, §2, §3
(§7) Cool climate crop plants: Triticum aestivum (TRZAW, winter wheat), Brassica napus (BRSNN, rape, also called oilseed rape or rapeseed), Beta vulgaris (BEAVA, sugar beet).

For test [11], the system named is Beta vulgaris (BEAVA, sugar beet). The description is as above. Particulars: 480 h, 250 g/ha, 20 DAA, read-out: percentage phytotoxicity BEAVA. How it is done:
as §1, §2, §3, §7

Test [12] relates to Triticum aestivum (TRZAW, winter wheat). The description is as above. Particulars: 480 h, 250 g/ha, 20 DAA, read-out: percentage phytotoxicity TRZAW. How it is done:
as §1, §2, §3, §7

Consider `CC#Cc1cc(Cl)c(C2C(=O)C3CCC(C3)C2=O)c(OCC)c1` (stereo not shown) [Compound A-16], for which the pest or weed control at 250 g/ha in the test with Avena fatua (AVEFA) stood at 40%; in test [1] it was 50%; in the test on Lolium perenne (LOLPE) it was 70%; in [2] it was 80%; in [3], 80%; in test [4] it was 100%. In addition, the pest or weed control at 250 g/ha with Setaria faberi (SETFA) [5] worked out at 90%; in test [8], 100%; in the test on Setaria faberi (SETFA) [9] it was 100%. Further, the plant injury at 250 g/ha in [6] worked out at 20%; in [10] it was 0%; in test [11], 0%; in [12], 0%. The pest or weed control at 30 g/ha in test [7] (30 g/ha application rate) stood at 80%; in test [8] (30 g/ha), 90%; in the test on Setaria faberi (SETFA) [9] (30 g/ha), 100%. The pest or weed control at 125 g/ha in test [7] (125 g/ha application rate) was 100%.
With `CC#Cc1cc(Cl)c(C2C(=O)C3CCC(C)(C2=O)C3(C)C)c(OC)c1` (stereo not shown) [Compound A-17], the pest or weed control at 250 g/ha in the test with Avena fatua (AVEFA) was 60%; in [1], 0%; in the test on Lolium perenne (LOLPE), 50%; in test [2], 50%; in [3], 100%; in [4] it was 100%. Besides, the pest or weed control at 250 g/ha stood at 50% in the test on Setaria faberi (SETFA) [5], 90% in test [7] (250 g/ha application rate), 90% in test [8] and 90% with Setaria faberi (SETFA) [9]. Moreover, the plant injury at 250 g/ha turned out to be 10% in [6], 0% in [10], 0% in test [11] and 0% in [12].
